Biological target: T1, recombinant human iNOS (hiNOS) (Homo sapiens, UniProt P35228)
T1 construct: gene NOS2; human iNOS cDNA in pEFIRES-P, overexpressed in HT1080 fibrosarcoma cells; post-mitochondrial supernatant, arginine removed with Dowex-50W; homodimer
Experiment: L-[U-14C]-arginine to L-[U-14C]-citrulline conversion assay
Assay type: biochemical
Conditions: 100 µM, test compound added simultaneously with L-[U-14C]-arginine
Text: L-[U-14C]-arginine to L-[U-14C]-citrulline conversion assay on recombinant human iNOS (hiNOS)

T1 sequence (P35228 whole entry): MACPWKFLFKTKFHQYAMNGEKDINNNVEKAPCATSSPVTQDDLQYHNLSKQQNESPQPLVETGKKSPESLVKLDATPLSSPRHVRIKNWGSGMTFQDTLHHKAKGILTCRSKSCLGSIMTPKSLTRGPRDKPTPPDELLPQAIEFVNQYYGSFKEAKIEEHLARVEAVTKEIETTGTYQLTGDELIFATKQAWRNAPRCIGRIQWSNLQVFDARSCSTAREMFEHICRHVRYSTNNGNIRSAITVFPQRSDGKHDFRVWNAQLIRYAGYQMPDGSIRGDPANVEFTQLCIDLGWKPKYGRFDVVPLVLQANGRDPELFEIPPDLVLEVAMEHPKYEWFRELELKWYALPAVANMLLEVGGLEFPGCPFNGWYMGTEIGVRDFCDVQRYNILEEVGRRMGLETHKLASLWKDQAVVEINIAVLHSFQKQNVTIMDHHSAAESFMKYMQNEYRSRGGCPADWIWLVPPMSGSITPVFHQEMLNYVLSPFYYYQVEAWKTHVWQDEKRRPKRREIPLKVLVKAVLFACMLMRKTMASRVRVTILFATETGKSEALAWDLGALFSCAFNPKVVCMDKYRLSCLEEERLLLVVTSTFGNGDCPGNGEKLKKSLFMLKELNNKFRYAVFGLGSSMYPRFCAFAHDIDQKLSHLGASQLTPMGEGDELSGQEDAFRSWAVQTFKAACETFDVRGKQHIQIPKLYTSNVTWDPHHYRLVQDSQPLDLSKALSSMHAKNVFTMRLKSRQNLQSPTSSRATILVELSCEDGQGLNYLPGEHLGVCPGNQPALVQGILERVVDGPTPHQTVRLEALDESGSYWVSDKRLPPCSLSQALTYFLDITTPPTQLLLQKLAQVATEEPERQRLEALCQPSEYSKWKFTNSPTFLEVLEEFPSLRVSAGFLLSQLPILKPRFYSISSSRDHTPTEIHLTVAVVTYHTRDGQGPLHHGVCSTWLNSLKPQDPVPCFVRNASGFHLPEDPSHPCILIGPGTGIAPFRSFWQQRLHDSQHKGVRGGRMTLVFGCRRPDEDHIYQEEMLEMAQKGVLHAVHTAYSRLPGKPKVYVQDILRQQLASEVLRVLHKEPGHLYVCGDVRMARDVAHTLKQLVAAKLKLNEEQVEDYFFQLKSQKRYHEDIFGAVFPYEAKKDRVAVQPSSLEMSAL

% Stimulation of hiNOS activity ^a / t = 0 min ^b	Structure (SMILES)
+62 ± 2%	COC(=O)c1ccc(CNC(N)=S)s1 [compound 13, Methyl 5-(thioureidomethyl)thiophene-2-carboxylate]
+37 ± 27%	COC(=O)c1cc(CNC(N)=S)cs1 [compound 25, Methyl 4-(thioureidomethyl)thiophene-2-carboxylate]

From paper PMC6257465, “Synthesis of N-(Methoxycarbonylthienylmethyl)thioureas and Evaluation of Their Interaction with Inducible and Neuronal Nitric Oxide Synthase” (Molecules, 2010)
